PubChem BioAssay (NCI)
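Grown in 96-well plates, cells were treated for 48 hours with each compound at five concentrations. Insufficient inhibition: endpoint recorded as highest concentration tested. GI50 = concentration required for 50% inhibition of growth. TGI marks complete inhibition of growth.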

Experiments:
Experiment in all cases: growth of human tumour cells (NCI), 48 h
HCT-15 colon = test system: HCT-15 colon
SF-268 CNS = test system: SF-268 CNS
OVCAR-8 ovarian = test system: OVCAR-8 ovarian
IGROV1 ovarian = test system: IGROV1 ovarian
DU-145 prostate = test system: DU-145 prostate
CCRF-CEM leukemia = test system: CCRF-CEM leukemia
HS 578T breast = test system: HS 578T breast
SNB-19 CNS = test system: SNB-19 CNS
RPMI-8226 leukemia = test system: RPMI-8226 leukemia
PC-3 prostate = test system: PC-3 prostate
MDA-MB-435 = test system: MDA-MB-435
MOLT-4 leukemia = test system: MOLT-4 leukemia
MDA-MB-231 breast = test system: MDA-MB-231 breast
RXF 393 renal = test system: RXF 393 renal
NCI/ADR-RES ovarian = test system: NCI/ADR-RES ovarian
UACC-62 melanoma = test system: UACC-62 melanoma
SN12C renal = test system: SN12C renal
A549 NSCLC = test system: A549 NSCLC
HCT-116 colon = test system: HCT-116 colon
KM12 colon = test system: KM12 colon
MALME-3M melanoma = test system: MALME-3M melanoma
OVCAR-5 ovarian = test system: OVCAR-5 ovarian
SW-620 colon = test system: SW-620 colon
CAKI-1 renal = test system: CAKI-1 renal
UO-31 renal = test system: UO-31 renal
HCC-2998 colon = test system: HCC-2998 colon
OVCAR-4 ovarian = test system: OVCAR-4 ovarian
MCF7 breast = test system: MCF7 breast
HL-60(TB) leukemia = test system: HL-60(TB) leukemia
NCI-H460 lung = test system: NCI-H460 lung
SNB-75 CNS = test system: SNB-75 CNS
SK-OV-3 ovarian = test system: SK-OV-3 ovarian
SK-MEL-5 melanoma = test system: SK-MEL-5 melanoma
HOP-92 NSCLC = test system: HOP-92 NSCLC
SF-539 CNS = test system: SF-539 CNS
HT29 colon = test system: HT29 colon
LOX IMVI melanoma = test system: LOX IMVI melanoma
EKVX NSCLC = test system: EKVX NSCLC
786-0 renal = test system: 786-0 renal
SK-MEL-2 melanoma = test system: SK-MEL-2 melanoma
SK-MEL-28 melanoma = test system: SK-MEL-28 melanoma
TK-10 renal = test system: TK-10 renal
T-47D breast = test system: T-47D breast
ACHN renal = test system: ACHN renal
OVCAR-3 ovarian = test system: OVCAR-3 ovarian
SR leukemia = test system: SR leukemia
NCI-H226 lung = test system: NCI-H226 lung
NCI-H522 lung = test system: NCI-H522 lung
U251 CNS = test system: U251 CNS
UACC-257 melanoma = test system: UACC-257 melanoma
NCI-H23 lung = test system: NCI-H23 lung
M14 melanoma = test system: M14 melanoma
A498 renal = test system: A498 renal
COLO 205 colon = test system: COLO 205 colon
HOP-62 NSCLC = test system: HOP-62 NSCLC
BT-549 breast = test system: BT-549 breast
SF-295 CNS = test system: SF-295 CNS

O=C(O)c1cc2cc(O)ccc2[nH]1
GI50 (HCT-15 colon): > 100 µM | TGI (HCT-15 colon): > 100 µM | GI50 (SF-268 CNS): > 100 µM | TGI (SF-268 CNS): > 100 µM | GI50 (OVCAR-8 ovarian): > 100 µM | TGI (OVCAR-8 ovarian): > 100 µM | GI50 (IGROV1 ovarian): > 100 µM | TGI (IGROV1 ovarian): > 100 µM | GI50 (DU-145 prostate): > 100 µM | TGI (DU-145 prostate): > 100 µM | GI50 (CCRF-CEM leukemia): > 100 µM | TGI (CCRF-CEM leukemia): > 100 µM | GI50 (HS 578T breast): > 100 µM | TGI (HS 578T breast): > 100 µM | GI50 (SNB-19 CNS): > 100 µM | TGI (SNB-19 CNS): > 100 µM | GI50 (RPMI-8226 leukemia): > 100 µM | TGI (RPMI-8226 leukemia): > 100 µM | GI50 (PC-3 prostate): > 100 µM | TGI (PC-3 prostate): > 100 µM | GI50 (MDA-MB-435): > 100 µM | TGI (MDA-MB-435): > 100 µM | GI50 (MOLT-4 leukemia): > 100 µM | TGI (MOLT-4 leukemia): > 100 µM | GI50 (MDA-MB-231 breast): > 100 µM | TGI (MDA-MB-231 breast): > 100 µM | GI50 (RXF 393 renal): > 100 µM | TGI (RXF 393 renal): > 100 µM | GI50 (NCI/ADR-RES ovarian): > 100 µM | TGI (NCI/ADR-RES ovarian): > 100 µM | GI50 (UACC-62 melanoma): > 100 µM | TGI (UACC-62 melanoma): > 100 µM | GI50 (SN12C renal): > 100 µM | TGI (SN12C renal): > 100 µM | GI50 (A549 NSCLC): > 100 µM | TGI (A549 NSCLC): > 100 µM | GI50 (HCT-116 colon): > 100 µM | TGI (HCT-116 colon): > 100 µM | GI50 (KM12 colon): > 100 µM | TGI (KM12 colon): > 100 µM | GI50 (MALME-3M melanoma): > 100 µM | TGI (MALME-3M melanoma): > 100 µM | GI50 (OVCAR-5 ovarian): > 100 µM | TGI (OVCAR-5 ovarian): > 100 µM | GI50 (SW-620 colon): > 100 µM | TGI (SW-620 colon): > 100 µM | GI50 (CAKI-1 renal): > 100 µM | TGI (CAKI-1 renal): > 100 µM | GI50 (UO-31 renal): > 100 µM | TGI (UO-31 renal): > 100 µM | GI50 (HCC-2998 colon): > 100 µM | TGI (HCC-2998 colon): > 100 µM | GI50 (OVCAR-4 ovarian): > 100 µM | TGI (OVCAR-4 ovarian): > 100 µM | GI50 (MCF7 breast): > 100 µM | TGI (MCF7 breast): > 100 µM | GI50 (HL-60(TB) leukemia): > 100 µM | TGI (HL-60(TB) leukemia): > 100 µM | GI50 (NCI-H460 lung): > 100 µM | TGI (NCI-H460 lung): > 100 µM | GI50 (SNB-75 CNS): > 100 µM | TGI (SNB-75 CNS): > 100 µM | GI50 (SK-OV-3 ovarian): > 100 µM | TGI (SK-OV-3 ovarian): > 100 µM | GI50 (SK-MEL-5 melanoma): > 100 µM | TGI (SK-MEL-5 melanoma): > 100 µM | GI50 (HOP-92 NSCLC): > 100 µM | TGI (HOP-92 NSCLC): > 100 µM | GI50 (SF-539 CNS): > 100 µM | TGI (SF-539 CNS): > 100 µM | GI50 (HT29 colon): > 100 µM | TGI (HT29 colon): > 100 µM | GI50 (LOX IMVI melanoma): > 100 µM | TGI (LOX IMVI melanoma): > 100 µM | GI50 (EKVX NSCLC): > 100 µM | TGI (EKVX NSCLC): > 100 µM | GI50 (786-0 renal): > 100 µM | TGI (786-0 renal): > 100 µM | GI50 (SK-MEL-2 melanoma): > 100 µM | TGI (SK-MEL-2 melanoma): > 100 µM | GI50 (SK-MEL-28 melanoma): > 100 µM | TGI (SK-MEL-28 melanoma): > 100 µM | GI50 (TK-10 renal): > 100 µM | TGI (TK-10 renal): > 100 µM | GI50 (T-47D breast): > 100 µM | TGI (T-47D breast): > 100 µM | GI50 (ACHN renal): > 100 µM | TGI (ACHN renal): > 100 µM | GI50 (OVCAR-3 ovarian): > 100 µM | TGI (OVCAR-3 ovarian): > 100 µM | GI50 (SR leukemia): > 100 µM | TGI (SR leukemia): > 100 µM | GI50 (NCI-H226 lung): > 100 µM | TGI (NCI-H226 lung): > 100 µM | GI50 (NCI-H522 lung): > 100 µM | TGI (NCI-H522 lung): > 100 µM | GI50 (U251 CNS): > 100 µM | TGI (U251 CNS): > 100 µM | GI50 (UACC-257 melanoma): > 100 µM | TGI (UACC-257 melanoma): > 100 µM | GI50 (NCI-H23 lung): > 100 µM | TGI (NCI-H23 lung): > 100 µM | GI50 (M14 melanoma): > 100 µM | TGI (M14 melanoma): > 100 µM | GI50 (A498 renal): > 100 µM | TGI (A498 renal): > 100 µM | GI50 (COLO 205 colon): > 100 µM | TGI (COLO 205 colon): > 100 µM | GI50 (HOP-62 NSCLC): > 100 µM | TGI (HOP-62 NSCLC): > 100 µM | GI50 (BT-549 breast): > 100 µM | TGI (BT-549 breast): > 100 µM | GI50 (SF-295 CNS): > 100 µM | TGI (SF-295 CNS): > 100 µM
